Experimental data taken from PubChem BioAssay AID248 (DTP/NCI, 2004).
“And” between values parts separate entries of the source, which are not always exact repeats. Equal entries are not always repeated. Toxic doses and inconclusive results are not listed. Rule as the data show it: active = T/C of 150% or more; inactive = T/C below 125%.

System: L1210 leukemia ip in BDF1 mice, survival T/C
Assay: NCI In Vivo Anticancer Drug Screen. Data for tumor model L1210 Leukemia (intraperitoneal) in B6D2F1 (BDF1) mice
Conditions: endpoint: mean survival time, higher = longer survival
Procedure, shortened: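 Transplanted-tumor mice were given test agent; controls received vehicle only. Survival readings from the two groups were divided (treated over control).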

[1] = dose: 100.0 mg/kg/injection, schedule: Q04DX003 (ip), vehicle: Klucel (hydroxypropylcellulose) (HPC)
[2] = dose: 100.0 mg/kg/injection, schedule: Q01DX009 (ip), vehicle: saline
[3] = dose: 100.0 mg/kg/injection, schedule: Q04DX002 (ip), vehicle: saline
[4] = dose: 200.0 mg/kg/injection, schedule: Q01DX009 (ip), vehicle: saline
[5] = dose: 200.0 mg/kg/injection, schedule: Q04DX002 (ip), vehicle: saline
[6] = dose: 400.0 mg/kg/injection, schedule: Q01DX009 (ip), vehicle: saline
[7] = dose: 400.0 mg/kg/injection, schedule: Q04DX002 (ip), vehicle: saline
[8] = dose: 75.0 mg/kg/injection, schedule: Q01DX001 (ip), vehicle: saline
[9] = dose: 100.0 mg/kg/injection, schedule: Q01DX001 (ip), vehicle: saline
[10] = dose: 200.0 mg/kg/injection, schedule: Q01DX001 (ip), vehicle: saline
[11] = dose: 400.0 mg/kg/injection, schedule: Q01DX001 (ip), vehicle: saline
[12] = dose: 100.0 mg/kg/injection, schedule: Q04DX003 (ip), vehicle: saline with Tween-80
[13] = dose: 200.0 mg/kg/injection, schedule: Q04DX003 (ip), vehicle: saline with Tween-80
[14] = dose: 400.0 mg/kg/injection, schedule: Q04DX003 (ip), vehicle: saline with Tween-80

Measured: T/C

CCCCC(CCC)CCC
inactive: dose: 100.0 mg/kg/injection, schedule: Q04DX002 (ip), vehicle: saline with Tween-80 103 % of control | dose: 200.0 mg/kg/injection, schedule: Q04DX002 (ip), vehicle: saline with Tween-80 94 % of control | dose: 400.0 mg/kg/injection, schedule: Q04DX002 (ip), vehicle: saline with Tween-80 106 % of control

CN(N=O)C(=O)NCCSc1ncnc2nc[nH]c12
inactive: dose: 6.25 mg/kg/injection, schedule: Q01DX Z (ip), vehicle: carboxymethylcellulose (CMC) 103 % of control | dose: 12.5 mg/kg/injection, schedule: Q01DX Z (ip), vehicle: carboxymethylcellulose (CMC) 95 % of control | dose: 25.0 mg/kg/injection, schedule: Q01DX Z (ip), vehicle: carboxymethylcellulose (CMC) 107 % of control | dose: 50.0 mg/kg/injection, schedule: Q01DX Z (ip), vehicle: carboxymethylcellulose (CMC) 119 % of control

CCCC(F)C(Br)C(=O)O (configuration not stated)
inactive: dose: 100.0 mg/kg/injection, schedule: Q04DX002 (ip), vehicle: other 90 % of control | dose: 200.0 mg/kg/injection, schedule: Q04DX002 (ip), vehicle: other 90 % of control | dose: 400.0 mg/kg/injection, schedule: Q04DX002 (ip), vehicle: other 90 % of control

CC1=C(N2CC2)C(=O)c2ccccc2C1=O
inactive: dose: 12.5 mg/kg/injection, schedule: Q04DX003 (ip), vehicle: Klucel (hydroxypropylcellulose) (HPC) 98 % of control | dose: 25.0 mg/kg/injection, schedule: Q04DX003 (ip), vehicle: Klucel (hydroxypropylcellulose) (HPC) 102 % of control | dose: 50.0 mg/kg/injection, schedule: Q04DX003 (ip), vehicle: Klucel (hydroxypropylcellulose) (HPC) 102 % of control | dose: 100.0 mg/kg/injection, schedule: Q01DX001 (ip), vehicle: Klucel (hydroxypropylcellulose) (HPC) 102 % of control | [1] 102 % of control

O=C(O)CNC1CCCCC1
inactive: [2] 96 % of control | [3] 97 % of control | [4] 89 % of control | [5] 102 % of control | [6] 96 % of control | [7] 97 % of control

CCCCC(CC)CC1C(=O)NC(=S)NC1=O (configuration not stated)
inactive: [8] 97 % of control | dose: 150.0 mg/kg/injection, schedule: Q01DX001 (ip), vehicle: saline 98 % of control

S=C(NP(=S)(NC(=S)OCCN1CC1)NC(=S)OCCN1CC1)OCCN1CC1
inactive: dose: 100.0 mg/kg/injection, schedule: Q01DX001 (ip), vehicle: carboxymethylcellulose (CMC) 93 % of control | dose: 200.0 mg/kg/injection, schedule: Q01DX001 (ip), vehicle: carboxymethylcellulose (CMC) 96 % of control

C=C1C2CCC3C4(C)CC(OC5OC(CO)C(OS(=O)(=O)O)C(OS(=O)(=O)O)C5OC(=O)CCCC)CC(C(=O)O)(C(=O)O)C4CCC3(C2)C1O (configuration not stated)
inactive: dose: 3.12 mg/kg/injection, schedule: Q04DX002 (ip), vehicle: saline 103 % of control | dose: 6.25 mg/kg/injection, schedule: Q04DX002 (ip), vehicle: saline 95 % of control

O/N=C/c1ccc(Cc2ccccc2)o1
inactive: dose: 75.0 mg/kg/injection, schedule: Q01DX001 (ip), vehicle: carboxymethylcellulose (CMC) 97 % of control | dose: 150.0 mg/kg/injection, schedule: Q01DX001 (ip), vehicle: carboxymethylcellulose (CMC) 100 % of control | dose: 300.0 mg/kg/injection, schedule: Q01DX001 (ip), vehicle: carboxymethylcellulose (CMC) 96 % of control

Cc1ccc(C)c(NC(=O)Nc2cccc3ccccc23)c1
inactive: dose: 100.0 mg/kg/injection, schedule: Q01DX009 (ip), vehicle: gum acacia 96 % of control | [1] 89 % of control | dose: 200.0 mg/kg/injection, schedule: Q01DX009 (ip), vehicle: gum acacia 100 % of control | dose: 200.0 mg/kg/injection, schedule: Q04DX003 (ip), vehicle: Klucel (hydroxypropylcellulose) (HPC) 93 % of control | dose: 400.0 mg/kg/injection, schedule: Q01DX009 (ip), vehicle: gum acacia 91 % of control | dose: 400.0 mg/kg/injection, schedule: Q04DX003 (ip), vehicle: Klucel (hydroxypropylcellulose) (HPC) 98 % of control

CCC/C(=N/NC(=O)C1CCCO1)c1ccccc1 (configuration not stated)
inactive: dose: 25.0 mg/kg/injection, schedule: Q01DX009 (ip), vehicle: Klucel (hydroxypropylcellulose) (HPC) 104 % of control | dose: 50.0 mg/kg/injection, schedule: Q01DX009 (ip), vehicle: Klucel (hydroxypropylcellulose) (HPC) 102 % of control | dose: 100.0 mg/kg/injection, schedule: Q01DX009 (ip), vehicle: Klucel (hydroxypropylcellulose) (HPC) 104 % of control and 88 % of control

COC(=O)C1CCC(N)CC1 (configuration not stated)
inactive: [9] 106 % of control and 105 % of control | [10] 104 % of control and 94 % of control | [11] 108 % of control and 96 % of control

c1cc2ccc3ccc[n+]4c3c2[n+](c1)CC4
inactive: [8] 103 % of control

COCP(=O)(O)O
inactive: [3] 96 % of control | [5] 100 % of control

CCN(CC)CCCN(C)C(=O)C(O)(c1ccccc1)c1ccccc1
inactive: dose: 25.0 mg/kg/injection, schedule: Q01DX001 (ip), vehicle: saline 102 % of control | dose: 50.0 mg/kg/injection, schedule: Q01DX001 (ip), vehicle: saline 97 % of control | [9] 102 % of control

c1cc2c(cc1C1=NNC(c3ccc4c(c3)OCO4)=NN1)OCO2
inactive: [12] 104 % of control | [13] 98 % of control | [14] 96 % of control

CCCCS(=O)(=O)N1CCCCC1
inactive: [2] 107 % of control | [4] 95 % of control | [6] 106 % of control

CC(C)NC(=O)N(c1ccccc1)C(C)C
inactive: [12] 98 % of control | [13] 89 % of control | [14] 89 % of control

C=NN=C(NN=C)NN=C
inactive: dose: 15.0 mg/kg/injection, schedule: Q01DX Z (ip), vehicle: methylcellulose (MC) 105 % of control | dose: 30.0 mg/kg/injection, schedule: Q01DX Z (ip), vehicle: methylcellulose (MC) 114 % of control | dose: 60.0 mg/kg/injection, schedule: Q01DX Z (ip), vehicle: methylcellulose (MC) 97 % of control | dose: 120.0 mg/kg/injection, schedule: Q01DX Z (ip), vehicle: methylcellulose (MC) 104 % of control | dose: 120.0 mg/kg/injection, schedule: Q01DX Z (oral), vehicle: methylcellulose (MC) 104 % of control | dose: 480.0 mg/kg/injection, schedule: Q01DX Z (oral), vehicle: methylcellulose (MC) 93 % of control

N#CC(C#N)=C(c1ccccc1)C1CCCCC1
inactive: [9] 92 % of control | [10] 94 % of control | [11] 100 % of control

CN(C)C(=O)CCCCC(=O)N(C)C
inactive: [3] 94 % of control | [5] 86 % of control | [7] 105 % of control

Nc1ncn(C2CC(OC(=O)c3ccc(Cl)cc3)C(COC(=O)c3ccc(Cl)cc3)O2)c(=O)n1 (configuration not stated)
inactive: dose: 100.0 mg/kg/injection, schedule: Q01DX005 (ip), vehicle: saline 110 % of control and 122 % of control | dose: 200.0 mg/kg/injection, schedule: Q01DX005 (ip), vehicle: saline 104 % of control

O=C1c2ccccc2C(=O)c2c1ccc1c(S(=O)(=O)Cl)cccc21
inactive: [3] 122 % of control | [5] 97 % of control | [7] 94 % of control

CCOC(=S)c1ccc(S(=O)(=O)NCc2ccccc2)cc1
inactive: dose: 100.0 mg/kg/injection, schedule: Q01DX001 (ip), vehicle: saline with Tween-80 100 % of control | dose: 200.0 mg/kg/injection, schedule: Q01DX001 (ip), vehicle: saline with Tween-80 102 % of control | dose: 400.0 mg/kg/injection, schedule: Q01DX001 (ip), vehicle: saline with Tween-80 100 % of control
